Reference: PMC11308618, “Determinants of interactions of a novel next-generation gabapentinoid NVA1309 and mirogabalin with the Cavα2δ-1 subunit” (Molecular Brain, 2024)

Assays:
Cavα2δ-1 [1] = molecular target: T1, Cavα2δ-1; test: SPR (Biacore) on immobilized peptide; assay type: binding, Oryctolagus cuniculus
T1 construct: gene CACNA2D1; chemically synthesized peptide surrounding the K615 locus ([…]; peptide P3)

Cavα2δ-1 [2] = test system: T1, Cavα2δ-1; test: SPR (Biacore) on immobilized peptide; also […] lowers Cav2.[…] current in tsA201 cells, lost with R243A or K615A Cavα[…]δ-1; assay type: binding, Oryctolagus cuniculus

Structure (SMILES)	Kd (Cavα2δ-1 [1])	Kd (Cavα2δ-1 [2])
CCC1=C[C@@H]2[C@H](C1)C[C@]2(CN)Cc1nnn[nH]1 [NVA1309]	273 ± 101 µM	
CCC1=C[C@@H]2[C@H](C1)C[C@]2(CN)CC(=O)O [mirogabalin]		161 ± 60 µM
